From patent US20240181123A1, “DRUG-ELUTING SUTURE FOR ATTENUATING INFLAMMATION IN WOUNDS” (University of Utah Research Foundation, priority 2022, published 2024)

Type: physicochemical
Procedure: In another variation of the manufacturing process involving hot-melt extrusion, a mixed/combined composition of the polymer material (often in the form of a powder) and the anti-inflammatory agent is raised to a temperature above the glass transition temperature of the polymer material. The combined composition is then subjected to hot-melt extrusion to form the suture. The temperature during the hot-melt extrusion process preferably remains at or below 140° C. We discovered that tacrolimus begins to degrade at temperatures above this limit. By carrying out the hot-melt extrusion at temperatures at or below 140° C., the process allows for the formation of the suture without causing degradation of the tacrolimus or the polymer material.

temperature above which tacrolimus begins to degrade: > 140 °C
Structure (SMILES): C=CC[C@@H]1/C=C(\C)C[C@H](C)C[C@H](OC)[C@H]2O[C@@](O)(C(=O)C(=O)N3CCCC[C@H]3C(=O)O[C@H](/C(C)=C/[C@@H]3CC[C@@H](O)[C@H](OC)C3)[C@H](C)[C@@H](O)CC1=O)[C@H](C)C[C@@H]2OC [tacrolimus]
